For test [1], the target named is T1, Avi-KRAS G12D (1-169) GppNHp/RAF1 RBD-3xFLAG (52-151) (Homo sapiens, UniProt P01116, G12D).
T1 construct: 100 nM Avi-KRAS G12D (1-169) GppNHp
Briefly: RAS-effector PPI HTRF disruption assay, Raf1-GppNHp-KRAS G12D. In kind it is biochemical. In short, it runs like this:
(§1)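 Each effector pair was tested at its own level (PI3KCA–G12D/Q25A at 375 nM, RAF1 RBD with G12D at 100 nM, and RAF1 RBD with G12V or WT at 50 nM) against compound dilutions from 100 μM down to 0.02 μM. Time-resolved fluorescence after two 1 h room-temperature steps gave IC50 values normalised to DMSO.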
Background: In TR-FRET formats the signal depends on donor and acceptor labels being close together.

Test [2] addresses T2, Avi-KRAS G12D/Q25A (1-169) GppNHp/3xFLAG-PI3KCA (157-299) (Homo sapiens, UniProt P01116, G12D/Q25A).
T2 construct: 375 nM Avi-KRAS G12D/Q25A (1-169) GppNHp
As to the kind of experiment: RAS-effector PPI HTRF disruption assay, PI3KCA-GppNHp-KRAS G12D/Q25A. It is filed as biochemical. The protocol:
A protein:protein interaction (PPI) Homogeneous Time Resolved Fluorescence (HTRF) assay was used to determine the effectiveness of compounds of the present disclosure in disrupting KRAS protein and effector (RAF1 or PIK3 CA) binding.
The HTRF assay used the following reagents and proteins: (i) 375 nM Avi-KRAS G12D/Q25A (1-169) GppNHp/3×FLAG-PI3KCA (157-299); (ii) 100 nM Avi-KRAS G12D (1-169) GppNHp/RAF1 RBD-3×FLAG (52-151); (iii) 50 nM Avi-KRAS G12V (1-169) GppNHp/RAF1 RBD-3×FLAG (52-151); (iv) 50 nM Avi-KRAS WT (1-169) GppNHp/RAF1 RBD-3×FLAG (52-151); and (v) 35 nM Avi-PI3K RBD CA-3×FLAG; Assay Buffer: 50 mM Tris pH 7.5, 100 mM NaCl, 5 mM MgCl2, 0.1% BSA, 0.01% Tween, 1 mM TCEP, 10% DMSO; Bead Buffer: 50 mM Tris pH 7.5, 0.01% Tween 20; Assay volume: 20 μL (384 well plate-low volume format); and Compound titration: 100-0.02 μM, 3× dilution series.
The HTRF assay employed the following protocol:
Compounds were dispensed in assay plate (384-well, Grenier Bione #784075) using Echo (model 555) with dose response settings: 200 nL final volume, titration from 100 μM as a 10-point dilution series. Protein mix was prepared in assay buffer, and dispensed on plates, 10 μL per well, then incubated for 1 h at room temperature, with 700 rpm shaking. Reagents mix was prepared and dispensed on plates, 10 μL per well, then incubated for 1 h at room temperature, with 700 rpm shaking.
Plates were analyzed on an Envision plate reader using the following setting: Excitation 320 nm, Bandwidth […]; Emission 615 nm, Bandwidth […], Gain 100%, Flashes 100, Lag 60 μs. Data was reported as percentage of activity, with DMSO as 100%. Data was plotted and analyzed using Prism 8. The SPR Kd, biochemical Raf1-KRAS G12D/G12V/WT-GppNHP and PI3KCA-KRAS G12D/Q25A-GppNHp disruption assay IC50 of selected compounds described herein are shown in Table 4.

Test [3] deals with pERK in GP2d cells (KRAS G12D). Briefly: Cell-based pERK HTRF assay in GP2d cell. The conditions noted are these: 60 min incubation. The procedure, abridged:
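Phospho-ERK was measured by HTRF in lysates of KRAS G12D GP2d cells after 60 min of compound exposure. Nine concentrations were tested, half-log apart from a 1 μM top, with 0.25% DMSO throughout. Cells had been plated the previous day in DMEM with 10% FBS, and the detection antibodies were incubated 4–24 h at room temperature before reading.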

The target of test [4] is T3, Avi-KRAS G12V (1-169) GppNHp/RAF1 RBD-3xFLAG (52-151) (Homo sapiens, UniProt P01116, G12V).
T3 construct: 50 nM Avi-KRAS G12V (1-169) GppNHp
Briefly: RAS-effector PPI HTRF disruption assay, Raf1-GppNHp-KRAS G12V. In kind it is biochemical. The procedure, abridged:
as §1

For test [5], the target named is T4, Avi-KRAS WT (1-169) GppNHp/RAF1 RBD-3xFLAG (52-151) (Homo sapiens, UniProt P01116).
T4 construct: 50 nM Avi-KRAS WT (1-169) GppNHp
As to the kind of experiment: RAS-effector PPI HTRF disruption assay, Raf1-GppNHp-KRAS WT. It is filed as biochemical. In short, it runs like this:
as §1

Where two headings read alike, the source gives them in different places.

T2 sequence (P01116 1-169 isoform P01116-2 G12D/Q25A): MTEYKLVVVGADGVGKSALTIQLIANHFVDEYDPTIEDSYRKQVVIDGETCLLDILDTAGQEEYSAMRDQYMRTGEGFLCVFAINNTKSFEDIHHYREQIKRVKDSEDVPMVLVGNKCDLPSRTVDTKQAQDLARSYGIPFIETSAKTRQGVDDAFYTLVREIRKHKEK
T4 sequence (P01116 1-169 isoform P01116-2): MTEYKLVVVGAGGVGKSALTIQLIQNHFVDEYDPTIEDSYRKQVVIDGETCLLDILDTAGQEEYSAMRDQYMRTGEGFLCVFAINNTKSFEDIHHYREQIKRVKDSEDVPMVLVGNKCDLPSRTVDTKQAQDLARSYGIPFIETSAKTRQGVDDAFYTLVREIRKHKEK
T3 sequence (P01116 1-169 isoform P01116-2 G12V): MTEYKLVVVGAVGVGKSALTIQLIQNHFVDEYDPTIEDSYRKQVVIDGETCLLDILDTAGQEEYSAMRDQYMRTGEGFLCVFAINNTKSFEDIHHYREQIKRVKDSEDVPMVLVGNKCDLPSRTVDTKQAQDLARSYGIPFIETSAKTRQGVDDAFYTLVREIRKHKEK
T1 sequence (P01116 1-169 isoform P01116-2 G12D): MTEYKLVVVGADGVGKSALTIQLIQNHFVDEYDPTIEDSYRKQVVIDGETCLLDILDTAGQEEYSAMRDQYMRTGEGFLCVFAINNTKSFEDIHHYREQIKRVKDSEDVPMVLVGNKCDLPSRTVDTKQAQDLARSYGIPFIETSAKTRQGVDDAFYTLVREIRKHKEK

Turning to `CC1(C)NCCC1Oc1nc(OC[C@@]23CCCN2C[C@H](F)C3)nc2c(F)c(-c3ccc(F)c4sc(N)c(C#N)c34)c(C(F)(F)F)cc12` (some centres unmarked) [Compound 34], the IC50 in test [1] was 0.1 to 1 µM; in test [2] it was 0.1 to 1 µM; in test [3] (GP2d, 1 h), not above 0.1 µM; in test [4], 0.1 to 1 µM; in test [5], 0.1 to 1 µM.

As for `C[C@H]1NCC[C@H]1Oc1nc(OC[C@@]23CCCN2C[C@H](F)C3)nc2cc(-c3ccc(F)c4sc(N)nc34)c(C(F)(F)F)cc12` [Compound 35], the IC50 in test [1] was 0.1 to 1 µM; in test [2], more than 10 µM; in test [3] (GP2d, 1 h), 0.1 to 1 µM; in test [4], 1 to 10 µM; in test [5], 1 to 10 µM.

As to `Nc1nc2c(-c3c(C(F)(F)F)cc4c(OC5CC6CC[C@H]5N6)nc(OCC56CCCN5CCC6)nc4c3F)ccc(F)c2s1` (some centres unmarked) [Compound 36], the IC50 in test [1] is 0.1 to 1 µM; in test [2] it was more than 10 µM; in test [3] (GP2d, 1 h), more than 1 µM; in test [4], more than 10 µM; in test [5] it was 1 to 10 µM.

Regarding `N#Cc1c(N)sc2c(F)ccc(-c3cc4nc(OC[C@@]56CCCN5C[C@H](F)C6)nc(O[C@H]5CNC[C@@H]5F)c4cc3C(F)(F)F)c12` [Compound 46], the IC50 in test [1] is 0.1 to 1 µM; in test [2], more than 10 µM; in test [3] (GP2d, 1 h), more than 1 µM; in test [4], more than 10 µM; in test [5] it was more than 10 µM.

Consider `C[C@H]1NCC[C@H]1Oc1nc(OC[C@@]23CCCN2C[C@H](F)C3)nc2c(F)c(-c3ccc(F)c4sc(N)c(C#N)c34)c(C(F)(F)F)cc12` [Compound 47, 2-amino-7-fluoro-4-(8-fluoro-2-(((2R,7aS)-2-fluorotetrahydro-1H-pyrrolizin-7a(5H)-yl)methoxy)-4-(((2R,3R)-2-methylpyrrolidin-3-yl)oxy)-6-(trifluoromethyl)quinazolin-7-yl)benzo[b]thiophene-3-carbonitrile], for which the IC50 was not above 0.1 µM in test [1]; more than 10 µM in test [2]; not above 0.1 µM in test [3] (GP2d, 1 h); 0.1 to 1 µM in test [4]; not above 0.1 µM in test [5].

With `N#Cc1c(N)sc2c(F)ccc(-c3ccc4c(O[C@@H]5CCNC5)nc(OC[C@@]56CCCN5C[C@H](F)C6)nc4c3F)c12` [Compound 48], the IC50 was 0.1 to 1 µM in test [1]; 0.1 to 1 µM in test [2]; 0.1 to 1 µM in test [3] (GP2d, 1 h); more than 10 µM in test [4]; 1 to 10 µM in test [5].

With `N#Cc1c(N)sc2c(F)ccc(-c3cc4nc(OC[C@@]56CCCN5C[C@H](F)C6)nc(O[C@H]5CNC[C@H]5F)c4cc3C(F)(F)F)c12` [Compound 49], the IC50 in test [1] is 0.1 to 1 µM; in test [2] it was 0.1 to 1 µM; in test [3] (GP2d, 1 h) it was not above 0.1 µM; in test [4], 1 to 10 µM; in test [5], 1 to 10 µM.

In the case of `N#Cc1c(N)sc2c(F)ccc(-c3c(C(F)(F)F)cc4c(O[C@@H]5CCN[C@@H]5CO)nc(OC[C@@]56CCCN5C[C@H](F)C6)nc4c3F)c12` [Compound 50], the IC50 is 0.1 to 1 µM in test [1]; 0.1 to 1 µM in test [2]; not above 0.1 µM in test [3] (GP2d, 1 h); 0.1 to 1 µM in test [4]; 0.1 to 1 µM in test [5].

Consider `N#Cc1c(N)sc2c(F)ccc(-c3ncc4c(O[C@H]5CNC[C@H]5F)nc(OC[C@@]56CCCN5C[C@H](F)C6)nc4c3F)c12` [Compound 51], for which the IC50 in test [1] is 1 to 10 µM; in test [2], 1 to 10 µM; in test [3] (GP2d, 1 h), more than 1 µM; in test [4] it was more than 10 µM; in test [5], more than 10 µM.

In the case of `Nc1nc2c(-c3c(C(F)(F)F)cc4c(O[C@H]5CN[C@H](CO)C5)nc(OCC56CCCN5C[C@H](F)C6)nc4c3F)ccc(F)c2s1` (some centres unmarked) [Compound 52], the IC50 was 0.1 to 1 µM in test [1]; 1 to 10 µM in test [2]; 0.1 to 1 µM in test [3] (GP2d, 1 h); more than 10 µM in test [4]; 1 to 10 µM in test [5].

As for `N#Cc1c(N)sc2c(F)ccc(-c3c(C(F)(F)F)cc4c(O[C@H]5CNC[C@@H]5F)nc(OC[C@@]56CCCN5C[C@H](F)C6)nc4c3F)c12` [Compound 53], the IC50 in test [1] was 0.1 to 1 µM; in test [2] it was 0.1 to 1 µM; in test [3] (GP2d, 1 h), not above 0.1 µM; in test [4], 1 to 10 µM; in test [5], 0.1 to 1 µM.

Consider `C[C@H]1C[C@H](Oc2nc(OC[C@@]34CCCN3C[C@H](F)C4)nc3c(F)c(-c4ccc(F)c5sc(N)c(C#N)c45)c(Cl)cc23)CN1` [Compound 54], for which the IC50 in test [1] was 0.1 to 1 µM; in test [2], 0.1 to 1 µM; in test [3] (read-out: pERK-Gp2D-1 hr) it was 0.1 to 1 µM; in test [4], 1 to 10 µM; in test [5] it was 0.1 to 1 µM.

Regarding `C[C@H]1C[C@H](Oc2nc(OC[C@@]34CCCN3C[C@H](F)C4)nc3c(F)c(-c4ccc(F)c5sc(N)c(C#N)c45)c(Cl)cc23)CN1` [Compound 55], the IC50 was 1 to 10 µM in test [1]; 1 to 10 µM in test [2]; more than 1 µM in test [3] (read-out: pERK-Gp2D-1 hr); more than 10 µM in test [4]; 1 to 10 µM in test [5].

Turning to `C[C@@H]1C[C@@H](Oc2nc(OC[C@@]34CCCN3C[C@H](F)C4)nc3c(F)c(-c4ccc(F)c5sc(N)c(C#N)c45)ccc23)CN1` [Compound 56], the IC50 is 1 to 10 µM in test [1]; 0.1 to 1 µM in test [2]; 0.1 to 1 µM in test [3] (GP2d, 1 h); more than 10 µM in test [4]; 1 to 10 µM in test [5].

As for `Nc1nc2c(-c3c(C(F)(F)F)cc4c(O[C@H]5CN[C@@H](CO)C5)nc(OCC56CCCN5C[C@H](F)C6)nc4c3F)ccc(F)c2s1` (some centres unmarked) [Compound 58], the IC50 in test [1] was 1 to 10 µM; in test [2], 0.1 to 1 µM; in test [3] (GP2d, 1 h), 0.1 to 1 µM; in test [4], more than 10 µM; in test [5] it was 1 to 10 µM.

For the molecule `C[C@H]1NCC[C@@H]1Oc1nc(OC[C@@]23CCCN2C[C@H](F)C3)nc2c(F)c(-c3ccc(F)c4sc(N)c(C#N)c34)c(Cl)cc12` [Compound 59], the IC50 is 0.1 to 1 µM in test [1]; 0.1 to 1 µM in test [2]; not above 0.1 µM in test [3] (GP2d, 1 h); 0.1 to 1 µM in test [4]; 0.1 to 1 µM in test [5].

With `N#Cc1c(N)sc2c(F)ccc(-c3c(C(F)(F)F)cc4c(O[C@@H]5CCN[C@@H]5CF)nc(OC[C@@]56CCCN5C[C@H](F)C6)nc4c3F)c12` [Compound 62], the IC50 is 0.1 to 1 µM in test [1]; 1 to 10 µM in test [2]; not above 0.1 µM in test [3] (GP2d, 1 h); 1 to 10 µM in test [4]; 0.1 to 1 µM in test [5].

Regarding `N#Cc1c(N)sc2c(F)ccc(-c3c(Cl)cc4c(O[C@@H]5CNC[C@@H]5F)nc(OC[C@@]56CCCN5C[C@H](F)C6)nc4c3F)c12` [Compound 63], the IC50 in test [1] lay within 0.1 to 1 µM; in test [2] it was 1 to 10 µM; in test [3] (GP2d, 1 h), 0.1 to 1 µM; in test [4], 1 to 10 µM; in test [5] it was 1 to 10 µM.

On to `C[C@@H]1NCC[C@@H]1Oc1nc(OC[C@@]23CCCN2C[C@H](F)C3)nc2c(F)c(-c3ccc(F)c4sc(N)c(C#N)c34)c(Cl)cc12` [Compound 65], for which the IC50 was 0.1 to 1 µM in test [1]; 0.1 to 1 µM in test [2]; not above 0.1 µM in test [3] (GP2d, 1 h); 0.1 to 1 µM in test [4]; 0.1 to 1 µM in test [5].
